Molecules are shown by their SMILES.

Our source for the RP-LC retention time values is the METLIN SMRT retention time set (Domingo-Almenara et al. 2019).

The data set in a line: gradient 5% acetonitrile 3 min, to 50% in 2 min, to 85% in 15 min, held 3 min, 100 µL/min. To be noted: column: Zorbax Extend-C18 2.1 x 50 mm; eluents: water / acetonitrile, 0.1% formic acid. Put shortly:
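Mixtures of ~100 pure standards were chromatographed on a Zorbax Extend-C18 column (2.1 × 50 mm, 1.8 μm) at 100 μL/min using water and acetonitrile, each with 0.1% formic acid. Detection used a quadrupole time-of-flight mass spectrometer in positive and negative ionization mode, and data collection spanned 3 months. Retention time was obtained from adduct peaks picked computationally and each checked manually.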
With `Cc1ccccc1NC(=O)NCC(c1cccnc1)c1cn(C)c2ccccc12` (stereo not given), the RP-LC retention time stood at 680 s.

`Cn1cc(CCN2CCN(C(=O)c3ccccc3Br)CC2)c2cccnc21`: the RP-LC retention time is 598 s.

For the molecule `Cc1nc(-c2noc(-c3ccccc3)n2)cn1CC(=O)Nc1ccc2c(c1)OCO2`, the RP-LC retention time was determined as 803 s.

As for `COC1CCC12CCN(Cc1ccc(C#N)cc1)CC2` (stereo not given), the RP-LC retention time came out at 597 s.

The molecule `CN(C)CCNCc1ccc(-c2cccc(Cl)c2)o1` returned an RP-LC retention time of 570 s.

On to `COC(=O)c1ccc(NC(=O)C(=O)NCC2(c3ccc(F)cc3)CC2)cc1`, for which the RP-LC retention time was found to be 834 s.

`CCc1cccc(C)c1Nc1c(-c2ccc(Cl)cc2)nc2ncccn12` showed an RP-LC retention time of 978 s.

In the case of `CCCCOc1ccc(C(=O)NC2(c3nc(CC)no3)CCCCC2)cc1`, the RP-LC retention time was determined as 1160 s.

`CCOC(=O)N1CCN(C(=O)Nc2nc(CC(=O)NC3CCCCCC3)cs2)CC1`: the RP-LC retention time amounted to 704 s.

Molecule `O=C(CN1CCCC(COCc2ccccc2)C1)NCc1ccc2c(c1)OCO2` (stereo not given) showed an RP-LC retention time of 592 s.

Turning to `CCn1c(=O)c(N2CCC(NC(=O)NCc3ccc(F)cc3)CC2)nc2cccnc21`, the RP-LC retention time is 850 s.

In the case of `O=C(NCC1CC1)[C@@H]1OCCN(C2CC2)[C@H]1c1ccccc1`, the RP-LC retention time was 612 s.

As for `O=C(CCCS(=O)(=O)c1ccc(F)cc1)Nc1nnc(-c2ccno2)o1`, the RP-LC retention time came to 637 s.

Consider `CC(C)c1ccc(NC(=O)Cc2nnc(-c3ccc4ncccc4c3)o2)cc1`, for which the RP-LC retention time worked out at 854 s.

`COc1nccnc1NC1CCN(C(=O)c2ccc(C#N)cc2)CC1` came in with an RP-LC retention time of 804 s.

`COc1ccc2cccc(NC(=O)c3csc(C)n3)c2n1` gave an RP-LC retention time of 1120 s.

In turn, `COc1ccc(-c2cc(C)no2)cc1S(=O)(=O)N1CCN(c2ccccn2)CC1` returned an RP-LC retention time of 651 s.

In the case of `COc1ccc(Cn2nc3ccc(S(=O)(=O)N4CCCC4)cn3c2=O)cc1F`, the RP-LC retention time is 862 s.

For the molecule `O=C(Nc1nnc(SCc2cccnc2)s1)c1cc(C2CC2)on1`, the RP-LC retention time was 598 s.

In turn, `O=C(Cc1cccc(F)c1)NC1CCN(c2cc(-c3cccs3)[nH]n2)C1` (stereo not given) returned an RP-LC retention time of 710 s.

The molecule `Cc1nnc(N2CCC(C(=O)N3CCOCC3)CC2)c2nn(-c3ccccc3)c(C)c12` displayed an RP-LC retention time of 620 s.

`Cc1ccccc1-c1noc(Cn2c(=O)n(Cc3ccco3)c(=O)c3ccccc32)n1`: the RP-LC retention time came out at 1100 s.

With `CC(C)N(Cc1ccccc1)C(=O)c1cc2c(=O)n3ccccc3nc2n1C`, the RP-LC retention time was 884 s.

`CCOc1ccc(-c2cc3c(=O)n(Cc4nc(-c5cccc(C)c5)no4)ncn3n2)cc1` came in with an RP-LC retention time of 1210 s.

`Cc1noc([C@@H]2CC(F)(F)CN2C(=O)c2ccoc2C)n1` came in with an RP-LC retention time of 756 s.

Take `Cc1cc(NC(=O)NC(=O)c2ccccc2NC(=O)C(C)N)ccc1Oc1ncc(Br)cn1` (stereo not given): the RP-LC retention time came out at 715 s.

As for `Cc1cn2c(S(=O)(=O)NC3CCCCC3)c(C(C)C)nc2s1`, the RP-LC retention time is 999 s.

In the case of `O=C(c1csc(N2CCN(c3ccc(F)cc3)CC2)n1)N1CCOCC1`, the RP-LC retention time was 954 s.

`CCOC(=O)C(C)c1c(C(=O)c2ccc(C)nc2)c2ccccc2n1C` (stereo not given) gave an RP-LC retention time of 1020 s.

Regarding `CCC(C)n1nnc2cc(S(=O)(=O)N3CCC(C(=O)NCc4cccnc4)CC3)ccc21` (stereo not given), the RP-LC retention time came to 648 s.

Molecule `CCN1CCN(CCCNC(=O)CC2CCN(C(=O)c3[nH]c(C)c(C)c3C)CC2)CC1` returned an RP-LC retention time of 578 s.

`CCc1nccn1Cc1nc(-c2ccc(C)c(C)c2)no1`: the RP-LC retention time is 681 s.

The molecule `Cc1cccc(CNC(=O)C2c3ccccc3CC(=O)N2C(C)C)c1` (stereo not given) returned an RP-LC retention time of 825 s.

In the case of `CCC(C)NC(=O)CC1CCN(C(=O)c2[nH]c(C)c(C(=O)OC(C)C)c2C)CC1` (stereo not given), the RP-LC retention time was determined as 775 s.

Take `CC(C)OCCCNC(=O)c1ccc2c(c1)N(C)C(=O)C1CCCCN21` (stereo not given): the RP-LC retention time stood at 770 s.

`COc1ccccc1N1CCN(S(=O)(=O)c2cc(-c3csc(C)n3)ccc2C)CC1` registered an RP-LC retention time of 1160 s.

Molecule `COc1ccc(-c2csc(NC(=O)Cn3nc(C)cc3C)n2)cc1` came in with an RP-LC retention time of 842 s.

On to `Cc1cc(C)c(S(=O)(=O)N2CCC(C)(C(=O)NCc3ccc4c(c3)OCO4)CC2)cc1C`, for which the RP-LC retention time came to 1010 s.

`Cc1ccc(S(=O)(=O)N2CCCCCC2)cc1-c1nnc(-c2ccc(F)cc2)o1` had an RP-LC retention time of 1220 s.

In the case of `O=S1(=O)C[C@H](N2CCN(c3ccccn3)CC2)[C@@H](S(=O)(=O)c2ccc(Cl)cc2)C1`, the RP-LC retention time was determined as 643 s.

Consider `Cc1ccccc1-c1noc(-c2cccnc2N2CCN(c3ccccc3)CC2)n1`, for which the RP-LC retention time was determined as 1410 s.

Regarding `O=S(=O)(c1ccc(Br)cc1)N1CCSC1c1ccco1` (stereo not given), the RP-LC retention time was found to be 965 s.

As for `Cn1ncc(Br)c1C(=O)N1CCCC1c1cccc(F)c1` (stereo not given), the RP-LC retention time was found to be 867 s.

Regarding `Cc1ccc(N2CC(c3nc(-c4ccc5c(c4)nnn5C)no3)CC2=O)cc1C` (stereo not given), the RP-LC retention time worked out at 880 s.

For `Cn1nc2n(c1=O)CCN(S(=O)(=O)c1cccc3cccnc13)CC2`, the RP-LC retention time came out at 649 s.

As to `CCOC(=O)N1CCN(S(=O)(=O)c2ccc(C(=O)Nc3cc(C)nn3C)cc2)CC1`, the RP-LC retention time turned out to be 687 s.

The molecule `Clc1ccc(OCc2nc3c4ccccc4ncn3n2)cc1` had an RP-LC retention time of 951 s.

As to `CC1CCC(N2CC(=O)N(CCN3CCOCC3)C(c3cccnc3)C2=O)CC1` (stereo not given), the RP-LC retention time is 548 s.

In turn, `CSc1nnc(C)c(=O)n1COC(=O)c1cc(C(F)(F)F)cc(C(F)(F)F)c1` had an RP-LC retention time of 932 s.

For the molecule `CC1CCN(CC2CCCN(C(=O)C3(c4ccccc4)CC3)CC2)CC1` (stereo not given), the RP-LC retention time came to 660 s.

Take `Cc1ccc(NC(=O)C2CCN(C(=O)C3Sc4ccccc4NC3=O)CC2)cc1` (stereo not given): the RP-LC retention time was 749 s.

In turn, `CCS(=O)(=O)N1CC(=O)N(c2ccc(C)cc2)C(C)(C(=O)NCc2ccc(F)cc2)C1` (stereo not given) returned an RP-LC retention time of 834 s.

Regarding `COc1ccc(OC)c(S(=O)(=O)N2CCCC(C(=O)NCCO)C2)c1` (stereo not given), the RP-LC retention time came out at 636 s.

`COc1ccccc1-c1nc2n(n1)C1(CCCCC1)[C@@H]1CCCC[C@@H]1N2C(=O)c1ccco1` registered an RP-LC retention time of 1200 s.

Take `CCN1CCN(CCNC(=O)CN2C(=O)C3CCCCN3c3ccc(C(=O)N4CCCC4)cc32)CC1` (stereo not given): the RP-LC retention time worked out at 591 s.

For `O=C(NCCn1nc(-n2cccn2)ccc1=O)C1(c2ccccc2)CCOCC1`, the RP-LC retention time amounted to 635 s.

Take `CSc1ccc(-c2nc3c(C)cccn3c2Nc2ccc3c(c2)OCCO3)cc1`: the RP-LC retention time is 749 s.

`CCN1c2cc(C(N)=O)ccc2C(=O)N2CCCCCC21` (stereo not given) displayed an RP-LC retention time of 649 s.

For the molecule `Cc1nc2cc(N3CCC(C(=O)NCCC4=CCCCC4)CC3)cnc2nc1C`, the RP-LC retention time was 767 s.

Regarding `CCCn1cc(S(=O)(=O)NCc2ccc(F)cc2Cl)c2cccnc21`, the RP-LC retention time amounted to 948 s.

For `O=C(Nc1ccc(Cl)cc1)C1CCCN(S(=O)(=O)c2c[nH]c(C(=O)N3CCCC3)c2)C1` (stereo not given), the RP-LC retention time was found to be 862 s.

`COC(=O)C1=CN(c2ccc(OC)c(OC)c2)c2cc(F)ccc2S1(=O)=O`: the RP-LC retention time worked out at 821 s.

`COc1nn(C)cc1C(=O)N1CCC(C(=O)NCC2CCCO2)CC1` (stereo not given) came in with an RP-LC retention time of 553 s.

`COCCNC(=O)C1Cc2ccccc2CN1S(=O)(=O)c1cccc(C)c1` (stereo not given): the RP-LC retention time came out at 845 s.

For `CCc1nc(-c2ccc(-c3noc(C(C)NC(=O)c4ccco4)n3)cc2)cs1` (stereo not given), the RP-LC retention time amounted to 980 s.

The molecule `COc1ccccc1CNC(=O)[C@@H]1[C@H](c2cc(OC)c(OC)c(OC)c2)c2cc3c(cc2[C@H](O)[C@H]1CO)OCO3` registered an RP-LC retention time of 713 s.

`COc1ccc(NS(=O)(=O)c2cc3c(s2)CCN(C(=O)C2CCC2)C3)cc1` returned an RP-LC retention time of 831 s.

In turn, `CC(NC(=O)c1ccccc1)c1nc(-c2ccc3c(c2)nnn3C)no1` (stereo not given) yielded an RP-LC retention time of 756 s.

`CCOc1ccc(CCNC(=O)C2CCCN(S(=O)(=O)N3CCC(C)CC3)C2)cc1` (stereo not given) came in with an RP-LC retention time of 1010 s.

In turn, `COc1cccc(C(O)CN2CCN(c3ccccc3)CC2)c1` (stereo not given) showed an RP-LC retention time of 634 s.

Molecule `CN(C)C(=O)C1CN(C(=O)c2cccc(Br)c2)CC12CCOCC2` (stereo not given) yielded an RP-LC retention time of 619 s.

The molecule `CCCNC(=O)c1nc2cc(C)c(C)cc2[nH]c1=O` registered an RP-LC retention time of 671 s.

For `Cn1nc(C(=O)N2CCCN(c3cc(-c4ccc(Br)cc4)[nH]n3)CC2)c2ccccc21`, the RP-LC retention time was 807 s.

For `CCN1CCn2cc(S(=O)(=O)Nc3cc(Cl)ccc3OC)cc2C1=O`, the RP-LC retention time was 764 s.

The molecule `Cc1sc(-c2cc(C(F)(F)F)on2)cc1S(=O)(=O)N1CCOCC1` came in with an RP-LC retention time of 1040 s.

`Cc1cccc(CNC(=O)CN2CCN(Cc3ccccc3)C2=O)c1` came in with an RP-LC retention time of 808 s.

`Fc1ccc(F)c(Cn2cccc2-c2nc(-c3ccncc3)no2)c1` gave an RP-LC retention time of 1130 s.

`Cc1ccc(S(=O)(=O)c2cnc(N3CCN(c4ccccn4)CC3)nc2N)cc1` gave an RP-LC retention time of 1160 s.

In turn, `COc1ccc(-c2nnc(-c3ccc(C)c(S(=O)(=O)N4CCCCCC4)c3)o2)cc1` displayed an RP-LC retention time of 1150 s.

As for `COCCCNC(=O)NC(C(=O)N1CCc2ccccc21)c1ccccc1` (stereo not given), the RP-LC retention time turned out to be 798 s.
